Assay results reported in patent US10669270B2, “Amide-sulfamide derivatives, compositions, and uses related to CXCR4 inhibition” (Emory University, priority 2016, dated 2020).

Row | SMILES | melting point [°C]
1 | Cn1nccc1C(=O)NCc1ccc(CNS(=O)(=O)c2ccc3c(c2)CCO3)cc1 [Ic, N-(4-((2,3-dihydrobenzofuran-5-sulfonamido)methyl)benzyl)-1-methyl-1H-pyrazole-5-carboxamide] | 143 to 145
2 | O=C(NCc1ccc(CNS(=O)(=O)c2ccccc2)cc1)c1ccc([N+](=O)[O-])cc1 [IIIo, 4-Nitro-N-(4-(phenylsulfonamidomethyl)benzyl)benzamide] | 201 to 203
3 | O=C(NCc1ccc(CNS(=O)(=O)c2ccccc2)cc1)c1ccccc1Cl [IIIk, 2-Chloro-N-(4-(phenylsulfonamidomethyl)benzyl)benzamide] | 116 to 118
4 | O=C(NCc1ccc(CNS(=O)(=O)c2ccccc2)cc1)c1c(Cl)cc(Cl)cc1Cl [IIIp, 2,4,6-Trichloro-N-(4-(phenylsulfonamidomethyl)benzyl)benzamide] | 158 to 160
5 | Cc1ccc(S(=O)(=O)NCc2ccc(CNC(=O)c3cccnc3)cc2)cc1 [IIq, N-(4-((4-methylphenylsulfonamido)methyl)benzyl)nicotinamide] | 120 to 122
6 | Cc1ccc(S(=O)(=O)NCc2ccc(CNC(=O)c3c(Cl)cc(Cl)cc3Cl)cc2)cc1 [IIp, 2,4,6-Trichloro-N-(4-((4-methylphenylsulfonamido)methyl)benzyl)benzamide] | 188 to 190
7 | O=C(NCc1ccc(CNS(=O)(=O)c2ccccc2)cc1)c1ccc(Cl)cc1 [IIIn, 4-Chloro-N-(4-(phenylsulfonamidomethyl)benzyl)benzamide] | 182 to 184
8 | COc1cccc(C(=O)NCc2ccc(CNS(=O)(=O)c3ccc(C)cc3)cc2)c1 [IIf, 3-Methoxy-N-(4-((4-methylphenylsulfonamido)methyl)benzyl)benzamide] | 130 to 132
9 | Cc1cccc(C(=O)NCc2ccc(CNS(=O)(=O)c3ccccc3)cc2)c1 [IIIc, 3-Methyl-N-(4-(phenylsulfonamidomethyl)benzyl)benzamide] | 112 to 114
10 | Cc1ccc(S(=O)(=O)NCc2ccc(CNC(=O)c3ccccc3)cc2)cc1 [IIa, N-(4-((4-methylphenylsulfonamido)methyl)benzyl)benzamide] | 162 to 164
11 | COc1cccc(C(=O)NCc2ccc(CNS(=O)(=O)c3ccccc3)cc2)c1 [IIIf, 3-Methoxy-N-(4-(phenylsulfonamidomethyl)benzyl)benzamide] | 120 to 122
12 | Cc1ccc(S(=O)(=O)NCc2ccc(CNC(=O)c3ccc([N+](=O)[O-])cc3)cc2)cc1 [IIo, N-(4-((4-methylphenylsulfonamido)methyl)benzyl)-4-nitrobenzamide] | 207 to 209
13 | COc1ccc(C(=O)NCc2ccc(CNS(=O)(=O)c3ccccc3)cc2)cc1 [IIIg, 4-Methoxy-N-(4-(phenylsulfonamidomethyl)benzyl)benzamide] | 164 to 166
14 | O=C(NCc1ccc(CNS(=O)(=O)c2ccccc2)cc1)c1ccncc1 [IIIr, N-(4-(phenylsulfonamidomethyl)benzyl)isonicotinamide] | 154 to 156
15 | O=C(NCc1ccc(CNS(=O)(=O)c2ccccc2)cc1)c1ccccc1F [IIIh, 2-Fluoro-N-(4-(phenylsulfonamidomethyl)benzyl)benzamide] | 122 to 124
16 | O=C(NCc1ccc(CNS(=O)(=O)c2ccc(F)cc2F)cc1)c1ncc[nH]1 [Ie, N-(4-((2,4-difluorophenylsulfonamido)methyl)benzyl)-1H-imidazole-2-carboxamide] | 225 to 227

Row | SMILES | melting point [°C]
17 | COc1ccc(C(=O)NCc2ccc(CNS(=O)(=O)c3ccc(C)cc3)cc2)cc1 [IIg, 4-Methoxy-N-(4-((4-methylphenylsulfonamido)methyl)benzyl)benzamide] | 147 to 149
18 | O=C(NCc1ccc(CNS(=O)(=O)c2ccccc2F)cc1)c1cc2ccccn2n1 [Ij, N-(4-((2-fluorophenylsulfonamido)methyl)benzyl)pyrazolo[1,5-a]pyridine-2-carboxamide] | 138 to 140
19 | Cc1ccc(S(=O)(=O)NCc2ccc(CNC(=O)c3ccccc3Cl)cc2)cc1 [IIk, 2-Chloro-N-(4-((4-methylphenylsulfonamido)methyl)benzyl)benzamide] | 140 to 142
20 | Cc1ccc(S(=O)(=O)NCc2ccc(CNC(=O)c3ccncc3)cc2)cc1 [IIr, N-(4-((4-methylphenylsulfonamido)methyl)benzyl)isonicotinamide] | 163 to 165
21 | O=C(NCc1ccc(CNS(=O)(=O)c2ccccc2)cc1)c1cccc(Cl)c1 [IIIm, 3-Chloro-N-(4-(phenylsulfonamidomethyl)benzyl)benzamide] | 114 to 116
22 | COc1ccccc1C(=O)NCc1ccc(CNS(=O)(=O)c2ccc(C)cc2)cc1 [IIe, 2-Methoxy-N-(4-((4-methylphenylsulfonamido)methyl)benzyl)benzamide] | 154 to 156
23 | O=C(NCc1ccc(CNS(=O)(=O)c2cccc(F)c2)cc1)c1cc2ccccn2n1 [Ih, N-(4-((3-fluorophenylsulfonamido)methyl)benzyl)pyrazolo[1,5-a]pyridine-2-carboxamide] | 163 to 165
24 | Cc1ccc(S(=O)(=O)NCc2ccc(CNC(=O)c3ccccc3F)cc2)cc1 [IIh, 2-Fluoro-N-(4-((4-methylphenylsulfonamido)methyl)benzyl)benzamide] | 138 to 140
25 | Cc1ccc(S(=O)(=O)NCc2ccc(CNC(=O)c3cccc(Cl)c3)cc2)cc1 [IIm, 3-Chloro-N-(4-((4-methylphenylsulfonamido)methyl)benzyl)benzamide] | 110 to 112
26 | Cc1ccc(C(=O)NCc2ccc(CNS(=O)(=O)c3ccccc3)cc2)cc1 [IIId, 4-Methyl-N-(4-(phenylsulfonamidomethyl)benzyl)benzamide] | 188 to 190
27 | Cc1ccc(S(=O)(=O)NCc2ccc(CNC(=O)c3cccc(F)c3)cc2)cc1 [IIi, 3-Fluoro-N-(4-((4-methylphenylsulfonamido)methyl)benzyl)benzamide] | 137 to 139
28 | Cc1ccc(S(=O)(=O)NCc2ccc(CNC(=O)c3cccc(C)c3)cc2)cc1 [IIc, 3-Methyl-N-(4-((4-methylphenylsulfonamido)methyl)benzyl)benzamide] | 123 to 125
29 | O=C(NCc1ccc(CNS(=O)(=O)c2ccc(F)c(F)c2)cc1)c1cnc2ccccn12 [Ii, N-(4-((3,4-difluorophenylsulfonamido)methyl)benzyl)imidazo[1,2-a]pyridine-3-carboxamide] | 192 to 194
30 | Cc1ccc(C(=O)NCc2ccc(CNS(=O)(=O)c3ccc(C)cc3)cc2)cc1 [IId, 4-Methyl-N-(4-((4-methylphenylsulfonamido)methyl)benzyl)benzamide] | 180 to 182
31 | Cc1ccc(S(=O)(=O)NCc2ccc(CNC(=O)c3ccccc3C)cc2)cc1 [IIb, 2-Methyl-N-(4-((4-methylphenylsulfonamido)methyl)benzyl)benzamide] | 147 to 149
32 | O=C(NCc1ccc(CNS(=O)(=O)c2ccc3c(c2)CCO3)cc1)c1cccc2c1COC2 [Id, N-(4-((2,3-dihydrobenzofuran-5-sulfonamido)methyl)benzyl)-1,3-dihydroisobenzofuran-4-carboxamide] | 149 to 151
